# In ChEMBL document CHEMBL4177698, “Discovery and in vivo effects of novel human natriuretic peptide receptor A (NPR-A) agonists with improved activity for rat NPR-A” (Bioorg Med Chem, 2017):
# Activity calls are given as the source filed them. The calls are words filed in the database; no cut-off is given here.
# How the values were obtained:
# [1] = biological target: T1, Atrial natriuretic peptide receptor 1 (Rattus norvegicus, UniProt P18910); experiment: Agonist activity at rat NPR-A expressed in CHO cells assessed as increase in cGMP accumulation after 15 mins by fluorescent assay; assay type: cell-based
# T1 sequence (P18910 whole entry): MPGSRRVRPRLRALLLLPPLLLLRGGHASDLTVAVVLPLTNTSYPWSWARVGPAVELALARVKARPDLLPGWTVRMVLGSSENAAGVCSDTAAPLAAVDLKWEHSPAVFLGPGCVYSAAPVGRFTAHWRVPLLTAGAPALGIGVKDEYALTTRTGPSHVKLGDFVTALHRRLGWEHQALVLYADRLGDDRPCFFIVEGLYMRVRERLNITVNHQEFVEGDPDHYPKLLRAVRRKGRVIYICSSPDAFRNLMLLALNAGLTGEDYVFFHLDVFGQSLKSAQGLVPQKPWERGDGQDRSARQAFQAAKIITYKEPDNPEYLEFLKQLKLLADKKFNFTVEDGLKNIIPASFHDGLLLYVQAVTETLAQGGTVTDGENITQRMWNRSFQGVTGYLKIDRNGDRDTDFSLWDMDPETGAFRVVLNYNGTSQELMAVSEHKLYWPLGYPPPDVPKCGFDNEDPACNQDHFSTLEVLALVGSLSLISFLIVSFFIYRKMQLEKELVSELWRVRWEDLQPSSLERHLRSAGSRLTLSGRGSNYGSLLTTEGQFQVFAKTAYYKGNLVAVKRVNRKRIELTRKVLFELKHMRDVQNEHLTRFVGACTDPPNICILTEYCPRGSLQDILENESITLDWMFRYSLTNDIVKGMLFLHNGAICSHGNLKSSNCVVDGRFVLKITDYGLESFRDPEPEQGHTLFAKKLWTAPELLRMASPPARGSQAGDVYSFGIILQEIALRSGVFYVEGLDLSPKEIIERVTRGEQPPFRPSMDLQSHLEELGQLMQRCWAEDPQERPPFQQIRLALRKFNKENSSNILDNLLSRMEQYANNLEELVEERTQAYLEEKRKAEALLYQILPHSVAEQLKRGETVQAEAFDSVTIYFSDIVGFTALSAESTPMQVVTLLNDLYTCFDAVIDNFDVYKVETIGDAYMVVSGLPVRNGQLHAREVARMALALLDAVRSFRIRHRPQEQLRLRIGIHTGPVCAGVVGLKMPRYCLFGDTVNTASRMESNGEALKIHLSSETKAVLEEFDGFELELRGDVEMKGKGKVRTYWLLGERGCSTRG
# [2] = biological target: T2, Atrial natriuretic peptide receptor 1 (Homo sapiens, UniProt P16066); experiment: Agonist activity at human NPR-A expressed in CHO cells assessed as increase in cGMP accumulation after 30 mins by radioimmunoassay; assay type: cell-based
# T2 sequence (P16066 whole entry): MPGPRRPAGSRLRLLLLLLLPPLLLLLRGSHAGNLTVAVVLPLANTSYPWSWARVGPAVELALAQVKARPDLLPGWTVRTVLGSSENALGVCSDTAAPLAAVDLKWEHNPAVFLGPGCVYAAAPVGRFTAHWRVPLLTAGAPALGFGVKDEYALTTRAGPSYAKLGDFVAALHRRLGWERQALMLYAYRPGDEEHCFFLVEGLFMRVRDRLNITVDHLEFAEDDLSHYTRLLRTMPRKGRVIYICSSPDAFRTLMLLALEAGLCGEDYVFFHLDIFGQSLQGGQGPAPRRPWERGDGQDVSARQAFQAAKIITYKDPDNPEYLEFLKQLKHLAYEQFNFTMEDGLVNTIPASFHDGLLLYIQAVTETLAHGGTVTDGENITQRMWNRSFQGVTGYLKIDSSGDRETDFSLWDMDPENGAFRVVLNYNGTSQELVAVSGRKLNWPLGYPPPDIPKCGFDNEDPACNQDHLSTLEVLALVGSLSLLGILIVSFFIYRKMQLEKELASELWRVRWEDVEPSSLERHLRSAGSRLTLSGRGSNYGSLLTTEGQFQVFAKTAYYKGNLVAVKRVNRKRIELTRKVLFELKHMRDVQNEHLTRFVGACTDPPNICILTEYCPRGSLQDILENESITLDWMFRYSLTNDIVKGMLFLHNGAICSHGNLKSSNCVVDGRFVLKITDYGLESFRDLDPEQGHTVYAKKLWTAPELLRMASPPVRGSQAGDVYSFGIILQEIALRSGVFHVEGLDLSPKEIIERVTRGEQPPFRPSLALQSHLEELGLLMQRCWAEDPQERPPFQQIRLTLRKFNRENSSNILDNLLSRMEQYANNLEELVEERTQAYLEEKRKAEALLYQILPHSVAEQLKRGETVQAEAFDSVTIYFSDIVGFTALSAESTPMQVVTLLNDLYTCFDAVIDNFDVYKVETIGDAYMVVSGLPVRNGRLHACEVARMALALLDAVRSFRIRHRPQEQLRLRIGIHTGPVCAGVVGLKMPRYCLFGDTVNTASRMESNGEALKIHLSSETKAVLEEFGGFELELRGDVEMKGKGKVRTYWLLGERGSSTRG
# Rattus norvegicus [3] = experiment: In vivo agonist activity at NPR-A in Crl:CD(SD) rat assessed as increase in cGMP accumulation in plasma at 1 mg/kg/min, iv administered via infusion for 15 mins measured after 30 mins by radioimmunoassay; assay type: functional, organism-based
# Rattus norvegicus [4] = experiment: Diuretic activity in Crl:CD(SD) rat assessed as increase in urine volume at 1 mg/kg/min, iv administered as infusion over 30 mins measured after 40 mins post dose; assay type: functional, organism-based
# Rattus norvegicus [5] = experiment: Diuretic activity in Crl:CD(SD) rat assessed as increase in urine volume at 1 mg/kg/min, iv administered as infusion over 30 mins measured after 20 mins post dose; assay type: functional, organism-based
# Rattus norvegicus [6] = experiment: In vivo agonist activity at NPR-A in Crl:CD(SD) rat assessed as increase in cGMP accumulation in heart at 1 mg/kg/min; assay type: functional, organism-based
# Rattus norvegicus [7] = experiment: In vivo agonist activity at NPR-A in Crl:CD(SD) rat assessed as increase in cGMP accumulation in lungs at 1 mg/kg/min; assay type: functional, organism-based
SMILES,EC50 [1],EC50 [2],also measured
CC(C)[C@@H](CO)NC(=O)N[C@H]1CC[C@@H](Nc2nc(N[C@H](C)CO)nc3ccc(-c4cccc(F)c4)cc23)CC1,330 nM,41 nM,–
COC[C@H](C)Nc1nc(N[C@H]2CC[C@@H](NC(=O)NC3CC3)CC2)c2cc(-c3cccc(F)c3)ccc2n1,1800 nM,850 nM,–
C[C@H](CO)Nc1nc(N[C@H]2CC[C@@H](NC(=O)NC3CC3)CC2)c2cc(-c3cccc(F)c3)ccc2n1,180 nM,330 nM,–
CC(C)NC(=O)N[C@H]1CC[C@H](Nc2nc(N[C@H](C)CO)nc3ccc(-c4cccc(F)c4)cc23)CC1,530 nM,460 nM,–
CC(C)Nc1nc(N[C@H]2CC[C@@H](NC(=O)N(C)C(C)C)CC2)c2cc(-c3cccc(F)c3)ccc2n1,3000 nM,4000 nM,–
C[C@H](CO)Nc1nc(N[C@H]2CC[C@H](NC(=O)[C@H]3C[C@H](O)C3)CC2)c2cc(-c3ccccc3)ccc2n1,1800 nM,900 nM,–
COC[C@@H](C)Nc1nc(N[C@H]2CC[C@@H](NC(=O)NC(C)C)CC2)c2nc(-c3cccc(F)c3)ccc2n1,1600 nM,4000 nM,–
C[C@H](CO)Nc1nc(N[C@H]2CC[C@H](NC(=O)[C@H]3C[C@H](O)C3)CC2)c2cc(-c3cccc(F)c3)ccc2n1,700 nM,470 nM,–
C[C@H](CO)Nc1nc(N[C@H]2CC[C@@H](NC(=O)NC3CCCN(C)C3)CC2)c2cc(-c3cccc(F)c3)ccc2n1 (stereo partly specified),3200 nM,780 nM,–
CC(C)Nc1nc(N[C@H]2CC[C@@H](NC(=O)N[C@@H](CO)C(C)C)CC2)c2cc(-c3cccc(F)c3)ccc2n1,290 nM,1000 nM,–
C[C@H](CO)Nc1nc(N[C@H]2CC[C@H](NC(=O)N3CC(O)C3)CC2)c2cc(-c3cccc(F)c3)ccc2n1,900 nM,420 nM,–
COC[C@@H](C)Nc1nc(N[C@H]2CC[C@@H](NC(=O)NC3CC3)CC2)c2cc(-c3cccc(F)c3)ccc2n1,270 nM,340 nM,–
CC(C)NC(=O)N[C@H]1CC[C@@H](Nc2nc(N(C)CCO)nc3ccc(-c4cccc(F)c4)cc23)CC1,2100 nM,720 nM,–
CC(C)N[C@H]1C[C@H](C(=O)N[C@H]2CC[C@H](Nc3nc(N[C@H](C)CO)nc4ccc(-c5ccccc5)cc34)CC2)C1,2000 nM,320 nM,–
COCCNc1nc(N[C@H]2CC[C@@H](NC(=O)NC(C)C)CC2)c2cc(-c3cccc(F)c3)ccc2n1,610 nM,380 nM,–
CC(C)NC(=O)N[C@H]1CC[C@@H](Nc2nc(NC(C)C)nc3ccc(-c4cccc(F)c4)cc23)CC1,420 nM,1500 nM,–

# These reach a lower EC50 [1]. Values come first.
EC50 [1],EC50 [2],SMILES,also measured
120 nM,78 nM,C[C@H](CO)Nc1nc(N[C@H]2CC[C@@H](NC(=O)NC3(CO)CCCC3)CC2)c2cc(-c3cccc(F)c3)ccc2n1,–
160 nM,200 nM,COC[C@@H](C)Nc1nc(N[C@H]2CC[C@@H](NC(=O)NC(C)C)CC2)c2cc(-c3cccc(F)c3)ccc2n1,–
66 nM,220 nM,C[C@H](CO)Nc1nc(N[C@H]2CC[C@@H](NC(=O)NC(C)(C)CO)CC2)c2cc(-c3cccc(F)c3)ccc2n1,Activity (Rattus norvegicus [3]): Active
65 nM,71 nM,CC(C)[C@H](CO)NC(=O)N[C@H]1CC[C@@H](Nc2nc(N[C@H](C)CO)nc3ccc(-c4cccc(F)c4)cc23)CC1,Activity (Rattus norvegicus [3]): Active
62 nM,110 nM,CC(C)[C@H](CO)NC(=O)N[C@H]1CC[C@@H](Nc2nc(N[C@H](C)CO)nc3ncc(-c4cccc(F)c4)cc23)CC1,Activity (Rattus norvegicus [4]): Active; Activity (Rattus norvegicus [5]): Active; Activity (Rattus norvegicus [6]): Active; Activity (Rattus norvegicus [3]): Active; Activity (Rattus norvegicus [7]): Active
130 nM,620 nM,CC(C)[C@H](CO)NC(=O)N[C@H]1CC[C@@H](Nc2nc(N[C@H](C)CO)nc3cnc(-c4cccc(F)c4)cc23)CC1,–
74 nM,320 nM,CC(C)NC(=O)N[C@H]1CC[C@@H](Nc2nc(N[C@H](C)CO)nc3ccc(-c4cccc(F)c4)cc23)CC1,–
43 nM,98 nM,CC(C)Nc1nc(N[C@H]2CC[C@@H](NC(=O)N[C@@H](CO)C(C)C)CC2)c2cc(-c3cccc(F)c3)cnc2n1,Activity (Rattus norvegicus [3]): Active
